Measured values published in US7368422B2, “Semi-synthetic rearranged vancomycin/desmethyl-vancomycin-based glycopeptides with antibiotic activity” (Novartis Vaccines and Diagnostics Inc., priority 2005, dated 2008).
Converted amounts (≈) assume the structure as drawn.

How the values were obtained:
Type in all cases: cell-based
[1] = tested on: methicillin-susceptible Staphylococus aureus (MSSA); test: MIC, NCCLS microdilution broth procedure, MSSA
Description: (§1) The following table identifies specific species of compounds according to the present invention and information concerning their associated antibacterial activity. The antibacterial activity of a compound in accordance with the present invention, chloro-biphenyl-rearranged norvacomycin (B), was tested and compared to unmodified vancomycin (Van) and norvancoycin (Nor). MIC (minimum inhibitory concentration) was measured according to NCCLS standards using the microdilution broth prodcedure. Serial dilutions of the compounds were placed in a 96-well microplate containing Mueller-Hinton medium. Based on absorbance of 600 nm, diluted overnight cultures were placed in the wells at a final concentration of 5×10^5 cfu/mL. The plate was then placed in a culture box at 35° C. The next day, MIC was determined by visual observation of the plates. The glycopeptides were tested against a variety of strains well known in the art for such testing, including methicillin-susceptible Staphylococus aureus (MSSA), methicillin-susceptible Staphylococus epidermidis (MSSE), methicillin-resistant Staphylococus aureus (MRSA), methicllin-resistant Staphylococus epidermidis (MRSE), and glycopeptide-intermediate Staphylococus aureus (GISA). Results are shown in the Table 1 as minimum inhibitory concentration (MIC) in units of μg/ml: […]

[2] = tested on: methicillin-susceptible Staphylococus epidermidis (MSSE); test: MIC, NCCLS microdilution broth procedure, MSSE
Description: as §1

[3] = tested on: glycopeptide-intermediate Staphylococus aureus (GISA) (D); test: MIC, NCCLS microdilution broth procedure, GISA (D)
Description: as §1

[4] = tested on: glycopeptide-intermediate Staphylococus aureus (GISA) (V); test: MIC, NCCLS microdilution broth procedure, GISA (V)
Description: as §1

[5] = tested on: methicillin-resistant Staphylococus aureus (MRSA); test: MIC, NCCLS microdilution broth procedure, MRSA
Description: as §1

[6] = tested on: methicllin-resistant Staphylococus epidermidis (MRSE); test: MIC, NCCLS microdilution broth procedure, MRSE
Description: as §1

| Structure (SMILES) | minimum inhibitory concentration (MIC) ([1]; MSSA strain # 68) [mg/L] | minimum inhibitory concentration (MIC) ([1]; MSSA strain # 83) [mg/L] | minimum inhibitory concentration (MIC) ([2]; MSSE strain # 3) [mg/L] | minimum inhibitory concentration (MIC) ([2]; MSSE strain # 10) [mg/L] | minimum inhibitory concentration (MIC) ([3]; GISA (D) strain # 68) [mg/L] | minimum inhibitory concentration (MIC) ([3]; GISA (D) strain # 143) [mg/L] | minimum inhibitory concentration (MIC) ([4]; GISA (V) strain # 68) [mg/L] | minimum inhibitory concentration (MIC) ([4]; GISA (V) strain # 143) [mg/L] | minimum inhibitory concentration (MIC) ([5]; MRSA strain # 134) [mg/L] | minimum inhibitory concentration (MIC) ([5]; MRSA strain # 143) [mg/L] | minimum inhibitory concentration (MIC) ([6]; MRSE strain # 24) [mg/L] | minimum inhibitory concentration (MIC) ([6]; MRSE strain # 25) [mg/L] | minimum inhibitory concentration (MIC) ([6]; MRSE strain # 26) [mg/L] |
| --- | --- | --- | --- | --- | --- | --- | --- | --- | --- | --- | --- | --- | --- |
| CC(C)C[C@@H](N)C(=O)N[C@H]1C(=O)N[C@@H](CC(N)=O)C(=O)N[C@H]2C(=O)N[C@H]3C(=O)N[C@H](C(=O)N[C@H](C(=O)O)c4cc(O)cc(O)c4-c4cc3ccc4O)[C@H](O)c3ccc(c(Cl)c3)Oc3cc2cc(c3O[C@@H]2O[C@H](CO)[C@@H](O)[C@H](O)[C@H]2O[C@H]2C[C@](C)(N)[C@H](O)[C@H](C)O2)Oc2ccc(cc2Cl)[C@H]1O [Nor, norvancoycin] | 2 (≈ 1.39 µM) | 2 (≈ 1.39 µM) | 2 (≈ 1.39 µM) | 2 (≈ 1.39 µM) | 4 (≈ 2.79 µM) | 4 (≈ 2.79 µM) | 4 (≈ 2.79 µM) | 8 (≈ 5.57 µM) | 2 (≈ 1.39 µM) | 2 (≈ 1.39 µM) | 2 (≈ 1.39 µM) | 2 (≈ 1.39 µM) | 2 (≈ 1.39 µM) |
| CN[C@H](CC(C)C)C(=O)N[C@H]1C(=O)N[C@@H](CC(N)=O)C(=O)N[C@H]2C(=O)N[C@H]3C(=O)N[C@H](C(=O)N[C@H](C(=O)O)c4cc(O)cc(O)c4-c4cc3ccc4O)[C@H](O)c3ccc(c(Cl)c3)Oc3cc2cc(c3O[C@@H]2O[C@H](CO)[C@@H](O)[C@H](O)[C@H]2O[C@H]2C[C@](C)(N)[C@H](O)[C@H](C)O2)Oc2ccc(cc2Cl)[C@H]1O [Van, vancomycin] | 2 (≈ 1.38 µM) | 2 (≈ 1.38 µM) | 2 (≈ 1.38 µM) | 2 (≈ 1.38 µM) | 8 (≈ 5.52 µM) | 4 (≈ 2.76 µM) | 8 (≈ 5.52 µM) | 8 (≈ 5.52 µM) | 2 (≈ 1.38 µM) | 2 (≈ 1.38 µM) | 2 (≈ 1.38 µM) | 2 (≈ 1.38 µM) | 2 (≈ 1.38 µM) |
